In PMC6412891, “Synthesis and Biological Evaluation of Novel Thiazolyl-Coumarin Derivatives as Potent Histone Deacetylase Inhibitors with Antifibrotic Activity” (Molecules, 2019):

Experiments:
[1] = Cytotoxicity assay (Alamar Blue) in cardiac fibroblasts; format: cell-based, rat; details: Sprague-Dawley, rat, primary neonatal rat cardiac fibroblasts (CFs), CFs treated for 48 h
Description: CFs were treated for 48 h with all the new CTz derivatives in a broad concentration range (100 μM^−1 mM), and their cytotoxicity was then evaluated. In Table 3 cytotoxic concentration 50 (CC50) values for each of the synthesized compounds are shown. […] When comparing the different ZBG the series 5 is the least cytotoxic for CFs, while series 8 was the most cytotoxic.
(§1) Sprague Dawley rats were obtained from the Animal Breeding Facility of the School of Chemical and Pharmaceutical Sciences at the University of Chile. All studies followed the Guide for the Care and Use of Laboratory Animals published by the US National Institutes of Health (NIH Publication 8th, 2011), and experimental protocols were approved by the University of Chile Institutional Ethics Review Committee. CF were isolated from of 2 or 3–day–old Sprague-Dawley rats and cultured as described previously. Briefly, the neonatal rats were decapitated and their hearts were extracted under aseptic environment. Atria were removed and ventricles were cut into small pieces (~1–2 mm) for posterior colagenase II digestion. The digestion yield was separated by 10 min centrifugation at 89×g. The pellet was resuspended in 10 mL of Dulbecco’s Modified Eagle’s Medium/Nutrient F-12 (DMEM-F12) supplemented with 10% FBS and antibiotics (100 μg/mL streptomycin and 100 units/mL penicillin) and cultured in a humid atmosphere of 5% CO2 and 95% O2 at 37°C until confluence (5 days). The purity of the CFs population was assessed through the expression of several markers. CFs had positive staining against vimentin (Santa Cruz Biotechnology), while being negative against sarcomeric actin and desmin (Sigma-Aldrich). Experiments were performed on cells at passage 1. Cells were cultured in 35-mm well plates and serum starved for 24 h prior to stimulation.
(§2) To evaluate cytotoxicity, CFs were seeded in 12 microwell plates at a ratio of 2 × 10^4 cell/cm^2, cultured in DMEM–F12 medium + 10% FBS, which was subsequently replaced by DMEM–F12. After 24 h of serum starvation derivatives were applied at proper times and concentrations in accordance to experimental procedures. Cell viability assays were carried out using Alamar Blue®, a nontoxic, cell permeable non fluorescent compound that is blue in color. Viable cells reduce resazurin to resorufin, which produces very bright red fluorescence which is used as a quantitative cell viability measure. 10 μL of 0.2 mg/mL Alamar Blue® was added into each well followed by incubation for 24 h. The fluorescence of Alamar Blue® was read using microplate reader at 570 excitation and emission to 595 nm. Cell survival was expressed as percentage over the untreated cells. To evaluate CFs proliferation assay, cells were seeded as mentioned before, and after serum starvation, they were stimulated by 10% fetal bovine serum (FBS), in presence/absence of CTz derivatives for 24 h, at concentrations according to experiment. Cell proliferation was quantified by Alamar Blue®, according to protocol mentioned before. Cell proliferation was expressed as percentage over the control FBS treated cells.

[2] = target: T1, HDAC6 human recombinant (Homo sapiens, UniProt Q9UBN7); assay: HDAC6 inhibitory activity, fluorometric kit; format: biochemical; details: Class II
T1 construct: purchased Enzo Life Science BML-AK516
T1 sequence (Q9UBN7 1-1215): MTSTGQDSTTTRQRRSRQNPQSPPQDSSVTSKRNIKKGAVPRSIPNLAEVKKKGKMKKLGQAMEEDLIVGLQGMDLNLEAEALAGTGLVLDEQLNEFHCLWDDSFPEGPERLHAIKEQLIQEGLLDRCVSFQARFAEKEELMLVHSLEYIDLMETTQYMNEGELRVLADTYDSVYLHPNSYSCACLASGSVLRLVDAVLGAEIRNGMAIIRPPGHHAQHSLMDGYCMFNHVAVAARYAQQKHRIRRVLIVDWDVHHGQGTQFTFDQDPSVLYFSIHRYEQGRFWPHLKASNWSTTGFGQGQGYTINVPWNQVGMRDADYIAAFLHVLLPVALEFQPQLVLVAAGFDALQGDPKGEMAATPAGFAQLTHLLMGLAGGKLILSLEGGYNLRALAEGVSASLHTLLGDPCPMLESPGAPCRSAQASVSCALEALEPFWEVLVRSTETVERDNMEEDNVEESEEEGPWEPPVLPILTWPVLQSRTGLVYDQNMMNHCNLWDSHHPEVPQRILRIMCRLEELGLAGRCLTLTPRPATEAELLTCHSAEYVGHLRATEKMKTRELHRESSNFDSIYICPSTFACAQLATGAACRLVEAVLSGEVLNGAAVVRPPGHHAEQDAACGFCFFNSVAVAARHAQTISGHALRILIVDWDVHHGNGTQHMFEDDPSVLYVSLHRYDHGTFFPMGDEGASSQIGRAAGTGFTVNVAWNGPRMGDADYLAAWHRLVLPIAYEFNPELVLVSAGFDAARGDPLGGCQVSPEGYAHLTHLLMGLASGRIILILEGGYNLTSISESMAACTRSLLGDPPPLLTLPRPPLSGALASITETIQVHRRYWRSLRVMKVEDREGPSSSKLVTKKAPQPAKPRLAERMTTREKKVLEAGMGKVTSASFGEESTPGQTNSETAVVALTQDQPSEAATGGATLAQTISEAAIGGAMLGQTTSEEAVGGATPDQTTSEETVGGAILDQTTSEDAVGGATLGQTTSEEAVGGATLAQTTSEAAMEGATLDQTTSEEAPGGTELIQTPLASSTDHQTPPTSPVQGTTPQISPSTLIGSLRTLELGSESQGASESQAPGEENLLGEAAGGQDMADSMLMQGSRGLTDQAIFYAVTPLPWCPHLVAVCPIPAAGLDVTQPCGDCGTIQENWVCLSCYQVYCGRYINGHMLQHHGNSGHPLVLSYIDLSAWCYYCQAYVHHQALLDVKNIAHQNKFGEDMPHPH

[3] = test system: neonatal rat cardiac fibroblasts (CFs); assay: FBS-induced cardiac fibroblast proliferation assay (Alamar Blue); format: cell-based; details: 10% FBS-induced CF proliferation, 48 h, read-out: Inhibition percentage of cell proliferation
Description: CFs were treated for 48 h with 10% fetal bovine serum (FBS), to induce CFs proliferation in presence/absence of each new CTz derivatives in a concentration range of 1–10 μM. In Table 4, the inhibition percentage of cell proliferation for each concentration of the synthesized compounds are shown. All derivatives inhibited CFs proliferation induce by serum.
as §1, with “Cells were cultured in 35-mm well plates and serum starved for 24 h prior to stimulation.” left out
as §2, with “10 μL of 0.2 mg/mL Alamar Blue® was added into each well followed by incubation for 24 h.” left out, “To evaluate CFs proliferation assay, cells were seeded as mentioned before, and after serum starvation, they were stimulated by 10% fetal bovine serum (FBS), in presence/absence of CTz derivatives for 24 h, at concentrations according to experiment.” left out

[4] = test system: HDACs HeLa cells nuclear extract; assay: HDAC inhibitory activity, fluorometric kit, HeLa cell nuclear extract; format: biochemical, human; details: HeLa cell nuclear extract as HDAC source
[5] = target: T2, HDAC1 human recombinant (Homo sapiens, UniProt Q13547); assay: HDAC1 inhibitory activity, fluorometric kit; format: biochemical; details: Class I
T2 construct: purchased Enzo Life Science BML-AK511
T2 sequence (Q13547 whole entry): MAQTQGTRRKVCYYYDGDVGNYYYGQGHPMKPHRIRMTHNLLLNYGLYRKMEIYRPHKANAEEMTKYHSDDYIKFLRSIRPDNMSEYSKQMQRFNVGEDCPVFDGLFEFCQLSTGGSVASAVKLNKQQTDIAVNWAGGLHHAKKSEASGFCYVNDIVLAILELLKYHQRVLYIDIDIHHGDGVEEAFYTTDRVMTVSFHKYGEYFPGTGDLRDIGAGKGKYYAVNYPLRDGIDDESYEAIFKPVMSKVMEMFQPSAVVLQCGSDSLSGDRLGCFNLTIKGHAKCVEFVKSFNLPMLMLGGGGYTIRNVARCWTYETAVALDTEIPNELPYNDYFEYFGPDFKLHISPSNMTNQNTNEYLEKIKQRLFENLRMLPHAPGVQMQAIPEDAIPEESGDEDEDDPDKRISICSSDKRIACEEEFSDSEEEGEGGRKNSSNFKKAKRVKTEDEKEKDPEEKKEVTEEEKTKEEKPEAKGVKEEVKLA

| SMILES | CC50 at 48 h [1] [µM] | IC50 [2] [nM] | inhibition at 1 µM [3] [%] | inhibition at 5 µM [3] [%] | inhibition at 10 µM [3] [%] | IC50 [4] [nM] | IC50 [5] [nM] |
| --- | --- | --- | --- | --- | --- | --- | --- |
| COc1ccc2oc(=O)c(-c3csc(NC(=O)c4ccc(O)c(O)c4)n3)cc2c1 [Compound 6c] | 124 ± 12.8 | 581 ± 27.5 | 10.9 ± 3.6 | 42.2 ± 1.8 | 64.9 ± 2.3 | 477 ± 27.5 | 504 ± 31.4 |
| O=C(O)CCCCC(=O)Nc1nc(-c2cc3cc(Br)ccc3oc2=O)cs1 [Compound 7b] | 80 ± 23.6 | 6340 ± 466 | 2.4 ± 1.1 | 36.1 ± 5.4 | 48 ± 4.8 | 5400 ± 400 | 4670 ± 362 |
| O=C(Nc1nc(-c2cc3cc(Br)ccc3oc2=O)cs1)c1ccc(O)c(O)c1 [Compound 6b] | 102 ± 10.3 | 449 ± 20.7 | 15.8 ± 3.6 | 40 ± 1.8 | 64.1 ± 1.7 | 509 ± 23.3 | 613 ± 32.8 |
| COc1ccc2oc(=O)c(-c3csc(NC(=O)CCCCC(=O)O)n3)cc2c1 [Compound 7c] | 99.5 ± 6.3 | 2430 ± 157 | 6 ± 0.4 | 33 ± 4.1 | 48.8 ± 5.2 | 4700 ± 310 | 3380 ± 302 |
